Data as given in publication PMC9896555, “Cyclic Acetals as Novel Long-Lasting Mosquito Repellents” (Journal of Agricultural and Food Chemistry, 2023).
Where two headings read alike, the source gives them in different places.

How the values were obtained:
Aedes albopictus [1] = assay: Protection time at 0.17 mg/cm2, human-bait technique; type: in vivo; conditions: for pest or weed control at 0.17 mg/cm2, 0.17 mg/cm2: Aedes albopictus, topical, read-out: Protection time PE%; for Average PT >95% (% coefficient of variation) / Estimated 100% PT (complete protection time, mean±SE): at the dose of 0.17mg/cm2; for Estimated 100% PT (complete protection time, mean±SE): Kaplan–Meier estimate; for Protection time (95% protection): dose of 0.17 mg/cm^2, tests ended after 8 h
Description: To evaluate the protection time of derivatives, the PE % was measured with 100 μL of a 5% ethanol solution, corresponding to 0.17 mg/cm^2 of exposed skin, under the same laboratory conditions. Mosquito-exposed skin was treated with 100 μL of ethanol, as the negative hand control. For each volunteer (up to 8), the test was performed every hour, up to 8 h from the application. The protection time of DEET and Icaridin was measured under the same conditions. Since these trials were run in parallel with those aimed to profile the cytotoxicity of the compounds (paragraph 2.6), we interrupted the experiments for those compounds showing to have higher cytotoxicity than Icaridin and DEET as soon as the results were available. For this reason, the number of volunteers differs among the compounds.
The average time until protection which was higher than 95% protection time was considered for each compound. Moreover, for the compounds tested on at least three volunteers, the complete (100%) protection time was also estimated (SPSS 28.01.0) using the Kaplan–Meier survivor function procedure.[22]

Aedes albopictus [2] = assay: Effective dose / protection efficacy, human-bait technique; type: in vivo; conditions: for pest or weed control at 0.081 µg/cm2, 0.081 µg/cm2 / pest or weed control at 0.17 µg/cm2, 0.17 µg/cm2 / pest or weed control at 0.33 µg/cm2, 0.33 µg/cm2 / pest or weed control at 0.5 µg/cm2, 0.5 µg/cm2 / pest or weed control at 0.83 µg/cm2, 0.83 µg/cm2 / pest or weed control at 1.7 µg/cm2, 1.7 µg/cm2 / pest or weed control at 8.3 µg/cm2, 8.3 µg/cm2 / pest or weed control at 16.7 µg/cm2, 16.7 µg/cm2 / pest or weed control at 83.3 µg/cm2, 83.3 µg/cm2: Aedes albopictus, topical, read-out: Protection efficacy PE%; for 100% PE: Table S1; for Protection efficacy (dose to obtain complete protection (100%) from bite attempts): applied on skin of volunteers, 3 min exposure
Description: The repellence of DEET, Icaridin (both supplied by Istituto Biochimico VEBI s.r.l.), acetals, and the synthesized hydroxyacetals was evaluated againstAedes albopictususing the human-bait technique (to simulate the condition of human skin on which repellents will be applied).[22]A. albopictuswas reared and tested at 26 ± 2 °C, ≥60 ± 10% relative humidity (RH), and at 14:10 h light/dark photoperiod, within Plexiglas cylindrical laboratory cages (35 cm diameter, 60 cm length) with one end closed by a net. During the tests, cages contained ≈150 nulliparous, 4–7 day-old, nonblood-fed females. For each compound to be tested, up to six volunteers participated in the trial.
The study was approved by the Regional Ethics Committee for Clinical Trials of Tuscany Region with the registered number 20383. Volunteers agreed to take part in the experiments following informed consent; only volunteers non-allergic to mosquito bites participated in the trials. On the day of the bioassay, they had no contact with lotions, perfumes, oils, or perfumed soaps. They wore latex surgical gloves, in which a dorsal square area of 30 cm^2 was cut open. Mosquito-exposed skin was treated with 50 μL of ethanol, as the negative hand control. The other hand was treated with 50 μL of the tested compounds in ethanol solution (dosages corresponding to 0.081, 0.17, 0.33, 0.5, 0.83, 1.7, 8.3, 16.7, and 83.3 μg/cm^2). Both hands were presented in the same test cage. The number of probing mosquitoes in a 3 min exposure period was recorded. During each test, the control and the treated hand were presented interchanged to verify the mosquitoes’ readiness to bite. Trials were considered valid only if at least 30 mosquitoes performed probing behavior on the control hand before each repellent dosage was tested. The protection efficacy (PE %) obtained from all replicates was calculated, according to the WHO guidelines[31] using this formula [drawing 1]
To evaluate the protection efficacy, volunteers applied increasing doses of the compounds to the skin on the back of their hands (30 cm^2, while the rest was covered with a rubber glove) and counted the number of mosquitoes attempting to bite; the solvent only was used on the control hand. The protection (percentage of repelled mosquitoes) was calculated as reported in the Material and Methods section.

CCCCC1(CCCC)OCC(C)(CO)CO1 [16b]
pest or weed control at 0.17 mg/cm2, 0.17 mg/cm2 (Aedes albopictus [1]; 0.17mg/cm2, 1 h): 98.6% | pest or weed control at 0.17 mg/cm2, 0.17 mg/cm2 (Aedes albopictus [1]; 0.17mg/cm2, 2 h): 97.5% | pest or weed control at 0.17 mg/cm2, 0.17 mg/cm2 (Aedes albopictus [1]; 0.17mg/cm2, 3 h): 99.5% | pest or weed control at 0.17 mg/cm2, 0.17 mg/cm2 (Aedes albopictus [1]; 0.17mg/cm2, 4 h): 96.3% | pest or weed control at 0.17 mg/cm2, 0.17 mg/cm2 (Aedes albopictus [1]; 0.17mg/cm2, 5 h): 95.1% | pest or weed control at 0.17 mg/cm2, 0.17 mg/cm2 (Aedes albopictus [1]; 0.17mg/cm2, 6 h): 93.7% | pest or weed control at 0.17 mg/cm2, 0.17 mg/cm2 (Aedes albopictus [1]; 0.17mg/cm2, 7 h): 96.2% | pest or weed control at 0.17 mg/cm2, 0.17 mg/cm2 (Aedes albopictus [1]; 0.17mg/cm2, 8 h): 94.6% | Average PT >95% (% coefficient of variation) (Aedes albopictus [1]): 420 (8.0) min | Estimated 100% PT (complete protection time, mean±SE) (Aedes albopictus [1]): 180 ± 64 min | Protection time (95% protection) (Aedes albopictus [1]): 7 h | pest or weed control at 0.081 µg/cm2, 0.081 µg/cm2 (Aedes albopictus [2]): 0% | pest or weed control at 0.17 µg/cm2, 0.17 µg/cm2 (Aedes albopictus [2]): 40.6% | pest or weed control at 0.33 µg/cm2, 0.33 µg/cm2 (Aedes albopictus [2]): 31.2% | pest or weed control at 0.5 µg/cm2, 0.5 µg/cm2 (Aedes albopictus [2]): 68.4% | pest or weed control at 0.83 µg/cm2, 0.83 µg/cm2 (Aedes albopictus [2]): 94.7% | pest or weed control at 1.7 µg/cm2, 1.7 µg/cm2 (Aedes albopictus [2]): 100% | pest or weed control at 8.3 µg/cm2, 8.3 µg/cm2 (Aedes albopictus [2]): 100% | pest or weed control at 16.7 µg/cm2, 16.7 µg/cm2 (Aedes albopictus [2]): 100% | pest or weed control at 83.3 µg/cm2, 83.3 µg/cm2 (Aedes albopictus [2]): 100% | 100% PE (Aedes albopictus [2]): 1.7 µg/cm2 | Protection efficacy (dose to obtain complete protection (100%) from bite attempts) (Aedes albopictus [2]): 1.7 μg/cm^2

CCCCCCCCCC1(C)OCC(CO)O1 (stereo not shown) [22a]
pest or weed control at 0.17 mg/cm2, 0.17 mg/cm2 (Aedes albopictus [1]; 0.17mg/cm2, 1 h): 100% | pest or weed control at 0.17 mg/cm2, 0.17 mg/cm2 (Aedes albopictus [1]; 0.17mg/cm2, 2 h): 100% | pest or weed control at 0.17 mg/cm2, 0.17 mg/cm2 (Aedes albopictus [1]; 0.17mg/cm2, 3 h): 98.9% | pest or weed control at 0.17 mg/cm2, 0.17 mg/cm2 (Aedes albopictus [1]; 0.17mg/cm2, 4 h): 98.2% | pest or weed control at 0.17 mg/cm2, 0.17 mg/cm2 (Aedes albopictus [1]; 0.17mg/cm2, 5 h): 95.2% | pest or weed control at 0.17 mg/cm2, 0.17 mg/cm2 (Aedes albopictus [1]; 0.17mg/cm2, 6 h): 99.5% | pest or weed control at 0.17 mg/cm2, 0.17 mg/cm2 (Aedes albopictus [1]; 0.17mg/cm2, 7 h): 96.6% | pest or weed control at 0.17 mg/cm2, 0.17 mg/cm2 (Aedes albopictus [1]; 0.17mg/cm2, 8 h): 90% | Average PT >95% (% coefficient of variation) (Aedes albopictus [1]): 420 (3.5) min | Estimated 100% PT (complete protection time, mean±SE) (Aedes albopictus [1]): 380 ± 105 min | Protection time (95% protection) (Aedes albopictus [1]): 7 h | pest or weed control at 0.081 µg/cm2, 0.081 µg/cm2 (Aedes albopictus [2]): 2.83% | pest or weed control at 0.17 µg/cm2, 0.17 µg/cm2 (Aedes albopictus [2]): 32.6% | pest or weed control at 0.33 µg/cm2, 0.33 µg/cm2 (Aedes albopictus [2]): 50% | pest or weed control at 0.5 µg/cm2, 0.5 µg/cm2 (Aedes albopictus [2]): 37.5% | pest or weed control at 0.83 µg/cm2, 0.83 µg/cm2 (Aedes albopictus [2]): 65.4% | pest or weed control at 1.7 µg/cm2, 1.7 µg/cm2 (Aedes albopictus [2]): 94.2% | pest or weed control at 8.3 µg/cm2, 8.3 µg/cm2 (Aedes albopictus [2]): 100% | pest or weed control at 16.7 µg/cm2, 16.7 µg/cm2 (Aedes albopictus [2]): 100% | pest or weed control at 83.3 µg/cm2, 83.3 µg/cm2 (Aedes albopictus [2]): 100% | Protection efficacy (dose to obtain complete protection (100%) from bite attempts) (Aedes albopictus [2]): 8.3 μg/cm^2

CCN(CC)C(=O)c1cccc(C)c1 [DEET, N,N-diethyl-3-methylbenzamide, reference compound]
pest or weed control at 0.17 mg/cm2, 0.17 mg/cm2 (Aedes albopictus [1]; 0.17mg/cm2, 1 h): 98% | pest or weed control at 0.17 mg/cm2, 0.17 mg/cm2 (Aedes albopictus [1]; 0.17mg/cm2, 2 h): 87.4% | pest or weed control at 0.17 mg/cm2, 0.17 mg/cm2 (Aedes albopictus [1]; 0.17mg/cm2, 3 h): 81.4% | pest or weed control at 0.17 mg/cm2, 0.17 mg/cm2 (Aedes albopictus [1]; 0.17mg/cm2, 4 h): 59.4% | Average PT >95% (% coefficient of variation) (Aedes albopictus [1]): 120 (1.4) min | Estimated 100% PT (complete protection time, mean±SE) (Aedes albopictus [1]): 120 ± 26 min | Protection time (95% protection) (Aedes albopictus [1]): 2 h | pest or weed control at 0.081 µg/cm2, 0.081 µg/cm2 (Aedes albopictus [2]): 18.9% | pest or weed control at 0.17 µg/cm2, 0.17 µg/cm2 (Aedes albopictus [2]): 34.7% | pest or weed control at 0.33 µg/cm2, 0.33 µg/cm2 (Aedes albopictus [2]): 67.3% | pest or weed control at 0.5 µg/cm2, 0.5 µg/cm2 (Aedes albopictus [2]): 74.4% | pest or weed control at 0.83 µg/cm2, 0.83 µg/cm2 (Aedes albopictus [2]): 79.8% | pest or weed control at 1.7 µg/cm2, 1.7 µg/cm2 (Aedes albopictus [2]): 88.6% | pest or weed control at 8.3 µg/cm2, 8.3 µg/cm2 (Aedes albopictus [2]): 100% | pest or weed control at 16.7 µg/cm2, 16.7 µg/cm2 (Aedes albopictus [2]): 100% | pest or weed control at 83.3 µg/cm2, 83.3 µg/cm2 (Aedes albopictus [2]): 100% | 100% PE (Aedes albopictus [2]): 8.3 µg/cm2 | Protection efficacy (dose to obtain complete protection (100%) from bite attempts) (Aedes albopictus [2]): 8.3 μg/cm^2
